Reference: patent US10745365B2, “Luminogenic and fluorogenic compounds and methods to detect molecules or conditions” (Promega Corporation, priority 2005, dated 2020)
Values joined by “and” are separate entries in the source; they are usually repeats but may differ in a detail not shown here. Identical values can stand only once.

Experiments:
[1] = tested on: human hepatocytes (CYP3A activity)
[2] = molecular target: T1, human recombinant flavin-containing monooxygenase 3 (FMO 3) (Homo sapiens, UniProt P31513); experiment: Two-step luminescent FMO 3 assay; assay type: biochemical; conditions: fit of Table 33
T1 construct: purchased Sigma Chemical Company F-5053; host or cells: baculovirus infected insect cells (microsomes)
T1 sequence (P31513 1-532): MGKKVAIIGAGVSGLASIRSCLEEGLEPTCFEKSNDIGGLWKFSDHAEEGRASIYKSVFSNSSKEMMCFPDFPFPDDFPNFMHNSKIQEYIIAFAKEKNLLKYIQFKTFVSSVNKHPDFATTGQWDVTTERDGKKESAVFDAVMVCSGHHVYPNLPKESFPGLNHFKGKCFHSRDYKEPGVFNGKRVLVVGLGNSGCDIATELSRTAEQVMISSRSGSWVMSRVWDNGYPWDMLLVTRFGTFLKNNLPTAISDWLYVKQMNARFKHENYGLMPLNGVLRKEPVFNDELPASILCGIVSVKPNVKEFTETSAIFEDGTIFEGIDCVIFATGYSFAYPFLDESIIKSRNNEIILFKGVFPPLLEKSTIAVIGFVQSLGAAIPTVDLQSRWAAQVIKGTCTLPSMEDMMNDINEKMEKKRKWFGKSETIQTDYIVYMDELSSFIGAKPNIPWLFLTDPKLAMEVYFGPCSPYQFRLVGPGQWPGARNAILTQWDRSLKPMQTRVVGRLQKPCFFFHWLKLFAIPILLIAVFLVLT

[3] = molecular target: T2, human recombinant monoamine oxidase A (MAO A) (Homo sapiens, UniProt P21397); experiment: Two-step bioluminogenic MAO A substrate assay
T2 sequence (P21397 1-527): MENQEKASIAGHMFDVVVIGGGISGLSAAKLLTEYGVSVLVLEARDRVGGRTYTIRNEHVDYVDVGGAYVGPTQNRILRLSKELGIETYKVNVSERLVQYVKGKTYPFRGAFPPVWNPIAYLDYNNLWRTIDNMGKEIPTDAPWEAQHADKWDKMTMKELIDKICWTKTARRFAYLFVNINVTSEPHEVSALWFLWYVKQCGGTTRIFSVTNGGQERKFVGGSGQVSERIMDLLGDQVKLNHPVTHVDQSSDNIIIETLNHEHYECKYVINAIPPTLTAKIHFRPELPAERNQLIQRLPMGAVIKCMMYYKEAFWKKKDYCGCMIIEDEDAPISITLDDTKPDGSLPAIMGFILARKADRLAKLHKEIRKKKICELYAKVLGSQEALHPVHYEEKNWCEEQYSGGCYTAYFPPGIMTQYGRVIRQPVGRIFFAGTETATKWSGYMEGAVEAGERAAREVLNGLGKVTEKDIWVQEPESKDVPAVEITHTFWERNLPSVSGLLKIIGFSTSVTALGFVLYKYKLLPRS

[4] = molecular target: T3, QuantiLum Luciferase (firefly luciferase) (Photinus pyralis, UniProt P08659); experiment: ATP titration of luciferase reactions with luciferin and fluoroluciferins; assay type: biochemical
T3 construct: purchased Promega Corporation El 70
T3 sequence (P08659 whole entry): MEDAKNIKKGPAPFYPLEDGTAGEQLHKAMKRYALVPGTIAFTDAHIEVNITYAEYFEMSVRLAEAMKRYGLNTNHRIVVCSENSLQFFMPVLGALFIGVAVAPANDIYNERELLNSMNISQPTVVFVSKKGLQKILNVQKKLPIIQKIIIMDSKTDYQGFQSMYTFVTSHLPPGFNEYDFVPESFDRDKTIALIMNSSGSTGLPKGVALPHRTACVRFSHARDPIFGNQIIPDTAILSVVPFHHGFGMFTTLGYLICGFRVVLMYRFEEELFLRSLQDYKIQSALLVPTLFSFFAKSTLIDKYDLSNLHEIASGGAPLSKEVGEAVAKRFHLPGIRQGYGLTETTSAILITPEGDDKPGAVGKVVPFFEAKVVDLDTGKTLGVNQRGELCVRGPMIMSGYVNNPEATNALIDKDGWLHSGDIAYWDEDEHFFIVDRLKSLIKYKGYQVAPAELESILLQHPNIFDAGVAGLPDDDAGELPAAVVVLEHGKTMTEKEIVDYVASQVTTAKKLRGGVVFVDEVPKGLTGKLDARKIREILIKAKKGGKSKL
Method: AU compounds except 5’-fluoroluciferin and DTT were purchased from Sigma Chemical. To some of this reagent 5 mM ATP (Amersham/Invitrogen) was added, then serially diluted by half-logs to 0.05 mM. Reactions were initiated by adding equal volumes (0.1 ml) of reagent and DMEM medium (Gibco/Invitrogen) containing 0.1% Prionex® (Pentapharm) and 1.4×10-5 mg/ml QuantiLum™ Luciferase (Promega Corporation).
For ATP titrations for 7′-fluoroluciferin, reagent was created containing 200 mM HEPES, 200 mM PIPES, 1 mM CDTA, 0.5% Tergitol NP-9, 0.03% Benzyl dodecyldimethyl ammonium bromide, 30 mM thiourea, 10 mM magnesium sulfate, and 0.15 mM 7′-fluoroluciferin. This solution was separated into 3 parts and pH of the reagents were 7.4, 7.2 and 6.7. To some of this reagent, 10 mM ATP (Amersham/Invitrogen) was added. The ATP was serially diluted by quarter-logs from 10 mM to 0.32 mM.
Reactions were initiated by adding equal volumes (0.03 ml) of reagent and DMEM medium (Gibco/Invitrogen) containing 0.1% Prionex® (Pentapharm) and 1.4×10-5 mg/ml QuantiLum™ Luciferase (Promega Corporation).
Luminescence was measured for 0.5 seconds per well using Berthold Orion luminometer.

[5] = molecular target: T3, QuantiLum Luciferase (firefly luciferase); experiment: Luminescence spectra of fluoroluciferins; assay type: biochemical; conditions: pH 7.4
Method: All compounds except fluoroluciferin and ATP were purchased from Sigma Chemical. ATP was purchased from Amersham/Invitrogen.
Spectra were measured using 0.5s integration with 1 nm increments on a Spex Fluorolog.

[6] = molecular target: T3, QuantiLum Luciferase (firefly luciferase); experiment: pH titration of 7′-fluoroluciferin luciferase reaction; assay type: biochemical
[7] = molecular target: T2, human recombinant monoamine oxidase A (MAO A); experiment: MAO A inhibition (IC50) with substrate MAO-11; assay type: biochemical; design: purchased Sigma Chemical Company M-7316; host or cells: baculovirus infected insect cells (microsomes)
[8] = molecular target: T4, human recombinant monoamine oxidase B (MAO B) (Homo sapiens, UniProt P27338); experiment: biochemical
T4 construct: purchased Sigma Chemical Company M-7441; host or cells: baculovirus infected insect cells (microsomes)
T4 sequence (P27338 1-520): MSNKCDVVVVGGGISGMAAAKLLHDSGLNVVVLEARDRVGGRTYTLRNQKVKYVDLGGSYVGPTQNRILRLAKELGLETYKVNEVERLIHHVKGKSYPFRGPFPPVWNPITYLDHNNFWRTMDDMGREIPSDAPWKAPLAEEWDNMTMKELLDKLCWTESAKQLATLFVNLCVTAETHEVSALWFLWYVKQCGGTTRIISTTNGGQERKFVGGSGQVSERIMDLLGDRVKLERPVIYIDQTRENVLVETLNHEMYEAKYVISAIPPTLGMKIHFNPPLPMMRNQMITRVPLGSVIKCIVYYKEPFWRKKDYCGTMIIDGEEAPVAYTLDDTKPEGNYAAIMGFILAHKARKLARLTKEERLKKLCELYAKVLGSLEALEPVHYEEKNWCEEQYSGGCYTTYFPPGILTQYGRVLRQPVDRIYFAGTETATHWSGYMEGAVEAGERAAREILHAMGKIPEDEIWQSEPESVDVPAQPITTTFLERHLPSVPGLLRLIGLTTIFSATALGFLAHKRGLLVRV

[9] = Control without MAO: fluorescence of the fluorogenic derivative (MAO substituted with H2O)
Method: The fluorescent signal was then measured (excitation/emission=355/460 nm) on a Fluoroskan Ascent plate fluorometer.
This 90 μl contained 35 μl 200 mM Tricine pH 8.3, 35 μl 200 mM Tricine pH 8.7 (or water), 10 μl 200 mM MgSO4, and 10 μl of each substrate dilution.

CYP2C19 = CYP2C19 (Homo sapiens, UniProt P33261); experiment: biochemical
CYP2C19, sequence (P33261 whole entry): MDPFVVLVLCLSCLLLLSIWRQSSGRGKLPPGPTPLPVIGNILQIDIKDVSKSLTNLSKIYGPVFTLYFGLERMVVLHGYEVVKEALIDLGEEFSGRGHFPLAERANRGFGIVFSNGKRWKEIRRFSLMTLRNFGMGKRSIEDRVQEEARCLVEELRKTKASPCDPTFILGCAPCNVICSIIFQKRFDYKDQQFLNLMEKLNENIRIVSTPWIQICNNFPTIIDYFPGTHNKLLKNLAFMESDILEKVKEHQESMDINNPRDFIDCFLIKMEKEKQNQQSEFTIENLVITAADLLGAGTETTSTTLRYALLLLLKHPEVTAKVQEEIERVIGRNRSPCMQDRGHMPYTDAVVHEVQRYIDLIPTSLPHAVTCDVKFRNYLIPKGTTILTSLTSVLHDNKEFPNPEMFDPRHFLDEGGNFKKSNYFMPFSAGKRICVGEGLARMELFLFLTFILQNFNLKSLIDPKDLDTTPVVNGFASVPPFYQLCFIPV

[10] = molecular target: T5, equine alcohol dehydrogenase (Equus caballus, UniProt P00327); experiment: Effect of inhibitors on the conversion of luciferol by equine alcohol dehydrogenase; assay type: biochemical; conditions: luciferol + equine ADH + NAD+ with 10 μl inhibitor solution, 37° C., 30 min; duplicates #1, #2 (controls 1023, 1087)
T5 construct: purchased Sigma Chem. Co. A9589
T5 sequence (P00327 whole entry): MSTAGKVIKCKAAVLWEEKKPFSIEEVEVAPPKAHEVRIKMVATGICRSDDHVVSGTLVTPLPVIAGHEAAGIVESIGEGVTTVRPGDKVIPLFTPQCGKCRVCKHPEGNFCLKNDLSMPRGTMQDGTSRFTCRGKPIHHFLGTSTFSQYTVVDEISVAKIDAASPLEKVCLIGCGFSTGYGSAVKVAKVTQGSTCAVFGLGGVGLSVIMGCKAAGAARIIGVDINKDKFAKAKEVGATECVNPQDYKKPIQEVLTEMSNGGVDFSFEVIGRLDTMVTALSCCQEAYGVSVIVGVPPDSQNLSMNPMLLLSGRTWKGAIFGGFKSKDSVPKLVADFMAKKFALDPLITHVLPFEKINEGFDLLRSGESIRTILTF
Method: Trichloroethanol solution: A 0.48 ml sample of 2,2,2, trichloroethanol (Aldrich T5480-5) was dissolved in water.
Reactions were initiated by addition of 1.5 μl of luciferol solution. Upon addition of the luciferol solution, the reactions were mixed and placed at 37° C.

[11] = molecular target: T3, QuantiLum Luciferase (firefly luciferase); experiment: pH dependence of firefly luciferase signal with luciferin or 5′-fluoroluciferin; assay type: biochemical
Method: Aliquots of these solutions were then placed into tubes and buffers were added to 80 mM.
Luminescent reactions were initiated by combining 100 μl of the luciferase-containing solution and 100 μl of the luciferase detection reagents. Luminescence was integrated over 1 second per sample using the Veritas plate luminometer (Turner Bio Systems). N=3 for each result.

Compound: CC(=O)N1CCN(c2ccc(OCC3COC(Cn4ccnc4)(c4ccc(Cl)cc4Cl)O3)cc2)CC1 (stereo not shown) [ketoconazole]
- CYP3A-dependent luminescence in hepatocytes [1]: inhibition by ketoconazole of both basal and rifampicin-induced activity

Compound: CNCCCOc1ccc2nc(C3=N[C@@H](C(=O)O)CS3)ccc2c1 [MAO-7, 6-(3-methylaminopropoxy)quinolinyl-luciferin]
- signal-to-background ratio at the Km value [2]: about 8.5
- MAO specificity by ratio RLUmax/Km ([3]; Table 25): more specific substrate for MAO A
- signal-to-background ratio at the Km value ([3]; fit of Table 22): about 95

Compound: O=C(O)[C@H]1CSC(c2nc3ccc(O)c(F)c3s2)=N1 [7′-fluoroluciferin]
- ATP requirement of luciferase reaction [4]: requirement for ATP is much higher
- red shift of luminescence λmax from regular luciferin [5]: approximately 21 nm
- pH optima of firefly luciferase reaction [6]: ~7.5

Compound: NCCc1ccccc1 [phenethylamine]
- IC50 [7]: 134 ± 9 µM
- IC50 [8]: 20 ± 2 µM

Compound: CNCCCOc1ccc2c(C)cc(=O)oc2c1 [MAO-F3, 7-(4-methyl-3-N-methylaminopropoxy)coumarin]
- no MAO fluorescent signal ([9]; [MAO-F3] 0.21 μM): 48
- no MAO fluorescent signal ([9]; [MAO-F3] 863.75 μM): 6461

Compound: NNC(=O)c1ccncc1 [isoniazid]
- IC50 (CYP2C19): 76 µM

Compound: c1cn[nH]c1 [Pyrazol, pyrazol]
- Relative Light Units [10]: 516.4 Relative Light Units and 490.7 Relative Light Units

Compound: O=C(O)[C@H]1CSC(c2nc3cc(F)c(O)cc3s2)=N1 [5′-fluoroluciferin]
- ATP requirement of luciferase reaction [4]: saturated with ATP at a higher concentration than the reaction using luciferin
- blue shift of luminescence λmax from regular luciferin [5]: approximately 25 nm
- blue shift of luminescence λmax from regular luciferin ([5]; listed as 5′ fluoroluciferin): about 10 nm
- Relative Luminescence (% of 8.3 Luciferin) ([11]; pH 6.900, MOPS): 19%
- Relative Luminescence (% of 8.3 Luciferin) ([11]; pH 7.133, MOPS): 22%
- Relative Luminescence (% of 8.3 Luciferin) ([11]; pH 7.296, MOPS): 23%
- Relative Luminescence (% of 8.3 Luciferin) ([11]; pH 7.303, HEPES): 22%
- Relative Luminescence (% of 8.3 Luciferin) ([11]; pH 7.499, MOPS): 23%
- Relative Luminescence (% of 8.3 Luciferin) ([11]; pH 7.521, HEPES): 25%
- Relative Luminescence (% of 8.3 Luciferin) ([11]; pH 7.673, Tricine): 24%
- Relative Luminescence (% of 8.3 Luciferin) ([11]; pH 7.720, HEPES): 27%
- Relative Luminescence (% of 8.3 Luciferin) ([11]; pH 7.883, Tricine): 24%
- Relative Luminescence (% of 8.3 Luciferin) ([11]; pH 7.892, HEPES): 26%
- Relative Luminescence (% of 8.3 Luciferin) ([11]; pH 8.100, Tricine): 24%
- Relative Luminescence (% of 8.3 Luciferin) ([11]; pH 8.327, Tricine): 22%
